Measured values taken from patent publication US20240166652A1, “MODULATORS OF THE INTEGRATED STRESS PATHWAY” (Calico Life Sciences LLC, priority 2017, published 2024).

Test system: ATF4 luciferase reporter in HEK293T cells
Test: ATF4-Luc assay (ATF4 luciferase reporter, tunicamycin-treated HEK293T cells)
Assay type: cell-based, human
Settings: Homo sapiens, HEK-293T; HEK293T cells carrying the ATF4 luciferase reporter, 1 μg/mL tunicamycin, 7 hours
Description: In order to test exemplary compounds of the invention in a cellular context, a stable VWMD cell line was first constructed. The ATF4 reporter was prepared by fusing the human full-length ATF4 5′-UTR (NCBI Accession No. BC022088.2) in front of the firefly luciferase (FLuc) coding sequence lacking the initiator methionine as described in Sidrauski et al (eLife 2013). The construct was used to produce recombinant retroviruses using standard methods and the resulting viral supernatant was used to transduce HEK293T cells, which were then subsequently selected with puromycin to generate a stable cell line.
HEK293T cells carrying the ATF4 luciferase reporter were plated on polylysine coated 384-well plates (Greiner Bio-one) at 30,000 cells per well. Cells were treated the next day with 1 μg/mL tunicamycin and 200 nM of a compound of Formula (I) for 7 hours. Luminescence was measured using One Glo (Promega) as specified by the manufacturer. Cells were maintained in DMEM with L-glutamine supplemented with 10% heat-inactivated FBS (Gibco) and Antibiotic-Antimycotic solution (Gibco).
Table 2 below summarizes the EC50 data obtained using the ATF4-Luc assay for exemplary compounds of the invention.

SMILES | EC50 [nM]
O=C(COc1ccc2c(c1)OC(F)(F)C(F)(F)O2)NC12CCC(NC(=O)COc3ccc(Cl)c(F)c3)(CC1)[C@@H](O)C2 [Compound 702, 2-(4-chloro-3-fluorophenoxy)-N-[(2S)-2-hydroxy-4-{2-[(2,2,3,3-tetrafluoro-2,3-dihydro-1,4-benzodioxin-6-yl)oxy]acetamido}bicyclo[2.2.2]octan-1-yl]acetamide] | < 10
O=C(COc1cccc(OC(F)(F)F)c1)NC12CC(NC(=O)COc3ccc(Cl)c(F)c3)(C1)C2 [Compound 392, 2-(4-chloro-3-fluorophenoxy)-N-(3-{2-[3-(trifluoromethoxy)phenoxy]acetamido}bicyclo[1.1.1]pentan-1-yl)acetamide] | < 10
O=C(COc1ccc(F)cc1)NC12CCC(NC(=O)COc3ccc(Cl)c(F)c3)(CC1)C(O)C2 (stereo not drawn) [Compound 330, 2-(4-chloro-3-fluorophenoxy)-N-{4-[2-(4-fluorophenoxy)acetamido]-2-hydroxybicyclo[2.2.2]octan-1-yl}acetamide] | < 10
COc1cc(OCC(=O)NC23CCC(NC(=O)COc4ccc(F)c(F)c4)(CC2)[C@@H](O)C3)ccc1F [Compound 756, 2-(3,4-difluorophenoxy)-N-{(2S)-4-[2-(4-fluoro-3-methoxyphenoxy)acetamido]-2-hydroxybicyclo[2.2.2]octan-1-yl}acetamide] | < 10
O=C(COc1ccc(Cl)c(Cl)c1)NC12CC(NC(=O)COc3cnc(C(F)(F)F)cn3)(C1)C2 [Compound 105, 2-(3,4-dichlorophenoxy)-N-[3-(2-{[5-(trifluoromethyl)pyrazin-2-yl]oxy}acetamido)bicyclo[1.1.1]pentan-1-yl]acetamide] | 10 to 50
CN1C(=O)C2(NC(=O)COc3ccc(Cl)c(Cl)c3)CCC1(NC(=O)COc1ccc(Cl)c(Cl)c1)CC2 [Compound 599, N,N-(2-methyl-3-oxo-2-azabicyclo[2.2.2]octane-1,4-diyl)bis[2-(3,4-dicholorophenoxy)acetamide]] | 10 to 50
O=C(COc1ccc(Cl)nc1)NC12CC(NC(=O)COc3ccc(Cl)c(F)c3)(C1)C2 [Compound 225, 2-(4-chloro-3-fluorophenoxy)-N-(3-{2-[(6-chloropyridin-3-yl)oxy]acetamido}bicyclo[1.1.1]pentan-1-yl)acetamide] | 10 to 50
Cc1ccc(OCC(=O)NC23CCC(NC(=O)COc4cc(F)c5cn[nH]c5c4)(CC2)[C@@H](O)C3)cc1F [Compound 735] | < 10
CC(C)(C)c1ccc(OCC(=O)NC23CCC(NC(=O)COc4ccc(Cl)c(F)c4)(CC2)C[C@@H]3O)cc1 [Compound 506, 2-(4-tert-butylphenoxy)-N-{(2S)-4-[2-(4-chloro-3-fluorophenoxy)acetamido]-2-hydroxybicyclo[2.2.2]octan-1-yl}acetamide] | 250 to 500
CNC(CC(=O)NC12CCC(NC(=O)COc3ccc(Cl)c(F)c3)(CC1)[C@@H](O)C2)c1ccc(Cl)cc1 (stereo partly drawn) [Compound 712, N-{(3S)-4-[2-(4-chloro-3-fluorophenoxy)acetamido]-3-hydroxybicyclo[2.2.2]octan-1-yl}-3-(4-chlorophenyl)-3-(methylamino)propanamide] | 500 to 2000
COc1ccc(OCC(=O)NC23CC(NC(=O)COc4ccc(Cl)c(F)c4)(C2)C3)cn1 [Compound 241, 2-(4-chloro-3-fluorophenoxy)-N-(3-{2-[(6-methoxypyridin-3-yl)oxy]acetamido}bicyclo[1.1.1]pentan-1-yl)acetamide] | 10 to 50
O=C(COc1ccc(F)c(F)c1)NC12CC(NC(=O)COc3ccc(F)c(F)c3)(C1)C2 [Compound 185, N,N′-(bicyclo[1.1.1]pentane-1,3-diyl)bis[2-(3,4-difluorophenoxy)acetamide]] | 10 to 50
COC(=O)c1cc(OCC(=O)NC23CCC(NC(=O)COc4ccc(Cl)c(F)c4)(CC2)C[C@@H]3O)no1 [Compound 519, methyl 3-[2-({(2S)-4-[2-(4-chloro-3-fluorophenoxy)acetamido]-2-hydroxybicyclo[2.2.2]octan-1-yl}amino)-2-oxoethoxy]-1,2-oxazole-5-carboxylate] | > 2000
CS(=O)(=O)c1ccc(OCC(=O)NC23CCC(NC(=O)COc4ccc(OC(F)(F)F)cc4)(CC2)[C@@H](O)C3)cc1F [Compound 765, 2-[3-fluoro-4-(methanesulfonyl)phenoxy]-N-[(3S)-3-hydroxy-4-{2-[4-(trifluoromethoxy)phenoxy]acetamido}bicyclo[2.2.2]octan-1-yl]acetamide] | 250 to 500
O=C(COc1ccc(Cl)c(F)c1)NC12CCC(NC(=O)COc3ccc(Cl)c(F)c3)(CC1)[C@H](O)C2 (single isomer, unassigned) [Compound 298] | < 10
O=C(COc1ccc(C(F)F)cc1)NC12CC(NC(=O)COc3ccc(C(F)F)cc3)(C1)C2 [Compound 389, N,N′-(bicyclo[1.1.1]pentane-1,3-diyl)bis{2-[4-(difluoromethyl)phenoxy]acetamide}] | 250 to 500
COCC(=O)Nc1cc(Cl)ccc1OCC(=O)NC12CC(NC(=O)COc3ccc(Cl)c(F)c3)(C1)C2 [Compound 800, 2-(4-chloro-3-fluorophenoxy)-N-(3-{2-[4-chloro-2-(2-methoxyacetamido)phenoxy]acetamido}bicyclo[1.1.1]pentan-1-yl)acetamide] | 50 to 250
O=C(COc1ccc(Cl)c(F)c1)NC12CCC(NC(=O)COc3ccc(Cl)c(F)c3)(CC1)C(CO)C2 (stereo not drawn) [Compound 568, N,N′-[2-(hydroxymethyl)bicyclo[2.2.2]octane-1,4-diyl]bis[2-(4-chloro-3-fluorophenoxy)acetamide]] | < 10
N#Cc1cccc(COCC(=O)NC23CC(NC(=O)COc4ccc(Cl)c(F)c4)(C2)C3)c1 [Compound 138, 2-(4-chloro-3-fluorophenoxy)-N-(3-{2-[(3-cyanophenyl)methoxy]acetamido}-bicyclo[1.1.1]pentan-1-yl)acetamide] | 250 to 500
O=C(COc1ccc(Cl)c(Cl)c1)NC12CC(NC(=O)COc3ccc(Cl)cc3F)(C1)C2 [Compound 122, 2-(4-chloro-2-fluorophenoxy)-N-{3-[2-(3,4-dichlorophenoxy)acetamido]-bicyclo[1.1.1]pentan-1-yl}acetamide] | < 10
O=C(COc1ccc(Cl)c(F)c1)NC12CC(COc3ccc(C(F)F)cn3)(C1)C2 [Compound 613, 2-(4-chloro-3-fluorophenoxy)-N-[3-({[5-(difluoromethyl)pyridin-2-yl]oxy}methyl)bicyclo[1.1.1]pentan-1-yl]acetamide] | 500 to 2000
O=C(COc1ccc(Cl)c(F)c1)NC12CC(NC(=O)Cc3ccncc3)(C1)C2 [Compound 459, 2-(4-chloro-3-fluorophenoxy)-N-{3-[2-(pyridin-4-yl)acetamido]bicyclo[1.1.1]pentan-1-yl}acetamide] | > 2000
O=C(COc1ccc(F)c(F)c1)NC12CCC(NC(=O)COc3ccc4c(c3)OC(F)(F)O4)(CC1)C(O)C2 (stereo not drawn) [Compound 362, 2-[(2,2-difluoro-2H-1,3-benzodioxol-5-yl)oxy]-N-{4-[2-(3,4-difluorophenoxy)acetamido]-2-hydroxybicyclo[2.2.2]octan-1-yl}acetamide] | < 10
Cc1n[nH]c2cc(OCC(=O)NC34CCC(NC(=O)COc5ccc(OC(F)(F)F)c(F)c5)(CC3)C[C@@H]4O)ccc12 [Compound 747, 2-[3-fluoro-4-(trifluoromethoxy)phenoxy]-N-[(3S)-3-hydroxy-4-{2-[(3-methyl-1H-indazol-6-yl)oxy]acetamido}bicyclo[2.2.2]octan-1-yl]acetamide] | 10 to 50
O=C(COc1ccc(Cl)c(F)c1)NC12CCC(NC(=O)COc3ccc(Cl)c(F)c3)(CC1)C2 [Compound 440, N,N′-(bicyclo[2.2.1]heptane-1,4-diyl)bis[2-(4-chloro-3-fluorophenoxy)acetamide]] | < 10
O=C(COc1ccc2c(c1)OC(F)(F)C(F)(F)O2)NC12CCC(NC(=O)COc3ccc(Cl)c(F)c3)(CC1)C(=O)N2 [Compound 689, 2-(4-chloro-3-fluorophenoxy)-N-(3-oxo-1-{2-[(2,2,3,3-tetrafluoro-2,3-dihydro-1,4-benzodioxin-6-yl)oxy]acetamido}-2-azabicyclo[2.2.2]octan-4-yl)acetamide] | 50 to 250
O=C(COc1ccc(Cl)c(F)c1)NC12CC(NS(=O)(=O)CCOc3ccccc3F)(C1)C2 [Compound 485, 2-(4-chloro-3-fluorophenoxy)-N-(3-{[2-(2-fluorophenoxy)ethanesulfonyl]amino}bicyclo[1.1.1]pentan-1-yl)acetamide] | 500 to 2000
O=C(O)CN(CCCOc1ccc(Cl)c(F)c1)C12CC(NC(=O)COc3ccc(Cl)c(F)c3)(C1)C2 [Compound 687, ({3-[2-(4-chloro-3-fluorophenoxy)acetamido]bicyclo[1.1.1]pentan-1-yl}[3-(4-chloro-3-fluorophenoxy)propyl]amino)acetic Acid] | 500 to 2000
O=C(COCc1ccc(Cl)cc1)NC12CC(NC(=O)COc3ccc(Cl)c(F)c3)(C1)C2 [Compound 130, 2-(4-chloro-3-fluorophenoxy)-N-(3-{2-[(4-chlorophenyl)methoxy]acetamido}-bicyclo[1.1.1]pentan-1-yl)acetamide] | 10 to 50
O=C(COc1ccc(Cl)c(Cl)c1)NC12CC(NC(=O)COc3cnc(C4CC4)cn3)(C1)C2 [Compound 285, 2-[(5-cyclopropylpyrazin-2-yl)oxy]-N-{3-[2-(3,4-dichlorophenoxy)acetamido]-bicyclo[1.1.1]pentan-1-yl}acetamide] | 50 to 250
